From patent US9783537B2, “3-(4-ethylnylphenyl) pyridopyrimidinone compounds and process for preparation thereof useful as potential anticancer agents” (Council of Scientific & Industrial Research, priority 2013, dated 2017)
Where two headings read alike, the source gives them in different places.

Tests used:
[1] = system: two prostate cancer cell line (PC-3, DU-145); assay: in vitro anticancer activity, prostate panel; type: cell-based; conditions: Homo sapiens; two prostate cancer cell lines, exposure at least 48 h; read-out: GI50, range over panel
[2] = system: seven ovarian cancer cell lines (IGROV1, OVCAR-3, OVCAR-4, OVCAR-5, OVCAR-8, NCI/ADR-RES and SK-OV-3); assay: in vitro anticancer activity, ovarian panel; type: cell-based; conditions: Homo sapiens, exposure at least 48 h, read-out: GI50, range over panel
[3] = system: PC-3; assay: SRB 48 h growth assay, Prostate PC-3; type: cell-based, human; conditions: PC-3, Prostate
[4] = system: LOX IMVI; assay: SRB 48 h growth assay, Melanoma LOX IMVI; type: cell-based, human
[5] = system: HS578T; assay: SRB 48 h growth assay, Breast HS578T; type: cell-based, human
[6] = system: ACHN; assay: SRB 48 h growth assay, Renal ACHN; type: cell-based, human
[7] = in vitro anticancer activity, non-small cell lung panel; type: cell-based; conditions: Homo sapiens; nine non-small cell lung cancer cell lines, exposure at least 48 h; read-out: GI50, range over panel
[8] = system: MDA-MB-468; assay: SRB 48 h growth assay, Breast MDA-MB-468; type: cell-based, human; conditions: MDA-MB-468, Breast
[9] = system: CCRF-CEM; assay: SRB 48 h growth assay, Leukemia CCRF-CEM; type: cell-based, human
[10] = system: SNB-19; assay: SRB 48 h growth assay, CNS SNB-19; type: cell-based, human; conditions: SNB-19, CNS
[11] = system: BT-549; assay: SRB 48 h growth assay, Breast BT-549; type: cell-based, human; conditions: BT-549, Breast
[12] = system: OVCAR-8; assay: SRB 48 h growth assay, Ovarian OVCAR-8; type: cell-based, human; conditions: OVCAR-8, Ovarian
[13] = system: six leukemia cancer cell lines (CCRF-CEM, HL-60, K-562, MOLT-4, SR and RPMI-8226); assay: in vitro anticancer activity, leukemia panel; type: cell-based; conditions: Homo sapiens, exposure at least 48 h, read-out: GI50, range over panel
[14] = system: six breast cancer cell line (MCF-7, MDA-MB-231/ATCC, HS 578T, TD-47D, MDA-MB-468 and BT-549); assay: in vitro anticancer activity, breast panel; type: cell-based; conditions: Homo sapiens; six breast cancer cell lines, exposure at least 48 h; read-out: GI50, range over panel
[15] = system: UACC-257; assay: SRB 48 h growth assay, Melanoma UACC-257; type: cell-based, human; conditions: UACC-257, Melanoma
[16] = system: OVCAR-3; assay: SRB 48 h growth assay, Ovarian OVCAR-3; type: cell-based, human; conditions: OVCAR-3, Ovarian
[17] = system: HCT-116; assay: SRB 48 h growth assay, Colon HCT-116; type: cell-based, human; conditions: HCT-116, Colon
[18] = system: NCI-H522; assay: SRB 48 h growth assay, Non-small Cell Lung NCI-H522; type: cell-based, human
[19] = system: SK-OV-3; assay: SRB 48 h growth assay, Ovarian SK-OV-3; type: cell-based, human; conditions: SK-OV-3, Ovarian
[20] = system: M14; assay: SRB 48 h growth assay, Melanoma M14; type: cell-based, human
[21] = system: NCI-H226; assay: SRB 48 h growth assay, Non-small Cell Lung NCI-H226; type: cell-based, human; conditions: for GI50: Homo sapiens
[22] = system: six CNS cancer cell line (SF-268, SF-295, SF-539, SNB-19, SNB-75 and U251); assay: in vitro anticancer activity, CNS panel; type: cell-based; conditions: Homo sapiens; six CNS cancer cell lines, exposure at least 48 h; read-out: GI50, range over panel
[23] = system: NCI/ADR-RES; assay: SRB 48 h growth assay, Ovarian NCI/ADR-RES; type: cell-based, human
[24] = system: A549/ATCC; assay: SRB 48 h growth assay, Non-small Cell Lung A549/ATCC; type: cell-based, human
[25] = system: NCI-H23; assay: SRB 48 h growth assay, Non-small Cell Lung NCI-H23; type: cell-based, human; conditions: for GI50: Homo sapiens
[26] = system: MDA-MB-435; assay: SRB 48 h growth assay, Melanoma MDA-MB-435; type: cell-based, human; conditions: MDA-MB-435, Melanoma
[27] = system: 786-0; assay: SRB 48 h growth assay, Renal 786-0; type: cell-based, human; conditions: 786-0, Renal
[28] = Homo sapiens, read-out: Growth Inhibition GI50
[29] = Homo sapiens, read-out: Log10 GI50 (converted)
[30] = Homo sapiens, read-out: Log10 LC50 (converted)
[31] = read-out: Growth Inhibition GI50
[32] = read-out: Log10 GI50 (converted)

C#Cc1ccc(-n2c(/C=C/c3cc(OC)c(OC)c(OC)c3)nc3ncccc3c2=O)cc1 [4q, (E)-3-(4-Ethynylphenyl)-2-(3,4,5-trimethoxystyryl)pyrido[2,3-d]pyrimidin-4(3H)-one]
GI50 [1]: 1.96 to 3.76 µM
GI50 [2]: 1.67 to 3.61 µM
GI50 [3, 28]: 3.96 µM
GI50 [3, 29]: 3.98 µM
CC50 [3, 30]: > 100 µM
Log10 TGI50 [3]: >−4.00
Log10 TGI50 [4]: −4.19
GI50 [4, 28]: 4.61 µM
GI50 [4, 29]: 4.57 µM
CC50 [4, 30]: > 100 µM
Log10 TGI50 [5]: −4.64
GI50 ([5]; Homo sapiens, Hs-578T, read-out: Growth Inhibition GI50): 3.67 µM
GI50 ([5]; Homo sapiens, Hs-578T, read-out: Log10 GI50 (converted)): 3.63 µM
CC50 ([5]; Homo sapiens, Hs-578T, read-out: Log10 LC50 (converted)): > 100 µM
Log10 TGI50 [6]: >−4.00
GI50 [6, 28]: 6.63 µM
GI50 [6, 29]: 6.61 µM
CC50 [6, 30]: > 100 µM
GI50 [7]: 1.32 to 3.9 µM
GI50 [8, 28]: 2.83 µM
GI50 [8, 29]: 2.82 µM
CC50 [8, 30]: > 100 µM
Log10 TGI50 [8]: >−4.00
Log10 TGI50 [9]: >−4.00
CC50 ([9]; Homo sapiens, CCKF-CEM, read-out: Log10 LC50 (converted)): > 100 µM
GI50 [9, 28]: 4.9 µM
GI50 [9, 29]: 4.9 µM
GI50 [10, 28]: 16.2 µM
GI50 [10, 29]: 16.2 µM
CC50 [10, 30]: > 100 µM
Log10 TGI50 [10]: >−4.00
Log10 TGI50 [11]: −5.00
GI50 [11, 28]: 2.99 µM
GI50 [11, 29]: 3.02 µM
CC50 [11, 30]: > 100 µM
GI50 [12, 28]: 9.67 µM
GI50 [12, 29]: 9.77 µM
CC50 [12, 30]: > 100 µM
Log10 TGI50 [12]: >−4.00
GI50 [13]: 1.39 to 3.01 µM
GI50 [14]: 1.51 to 3.46 µM
GI50 [15, 28]: 9.74 µM
GI50 [15, 29]: 9.77 µM
CC50 [15, 30]: > 100 µM
Log10 TGI50 [15]: >−4.00
GI50 [16, 28]: 2.33 µM
GI50 [16, 29]: 2.34 µM
CC50 [16, 30]: > 100 µM
Log10 TGI50 [16]: −5.19
Log10 TGI50 [17]: >−4.00
GI50 [17, 28]: 5.17 µM
GI50 [17, 29]: 5.13 µM
CC50 [17, 30]: > 100 µM
Log10 TGI50 [18]: −5.20
GI50 [18, 28]: 2.33 µM
GI50 [18, 29]: 2.34 µM
CC50 [18, 30]: 66.1 µM
GI50 [19, 28]: 5.33 µM
GI50 [19, 29]: 5.37 µM
CC50 [19, 30]: > 100 µM
Log10 TGI50 [19]: −4.11
Log10 TGI50 [20]: ->−4.00
GI50 [20, 28]: 4.93 µM
GI50 [20, 29]: 4.9 µM
CC50 [20, 30]: > 100 µM
Log10 TGI50 [21]: >−4.00
GI50 [21, 31]: 12.9 µM
GI50 [21, 32]: 12.9 µM
GI50 [22]: 1.67 to 2.27 µM
Log10 TGI50 [23]: −4.46
GI50 [23, 28]: 3.61 µM
GI50 [23, 29]: 3.63 µM
CC50 [23, 30]: > 100 µM
Log10 TGI50 [24]: >−4.00
GI50 [24, 28]: 5.65 µM
GI50 [24, 29]: 5.62 µM
CC50 [24, 30]: > 100 µM
Log10 TGI50 [25]: >−4.00
GI50 [25, 31]: 17.3 µM
GI50 [25, 32]: 17.4 µM
GI50 [26, 28]: 1.98 µM
GI50 [26, 29]: 2 µM
CC50 [26, 30]: 97.7 µM
Log10 TGI50 [26]: −5.27
Log10 TGI50 [27]: >−4.00
GI50 [27, 28]: 5.31 µM
GI50 [27, 29]: 5.25 µM
CC50 [27, 30]: > 100 µM
